# Measured values taken from patent US20220272990A1, “Methods and Compositions of the Botanical Extract to Promote and Boost Plant Growth and Prevent and Suppress Plant Diseases” (priority 2019, published 2022).
# How the values were obtained:
# [1] = tested on: Fusarium graminearum; type: cell-based; details: thyme, yarrow extracts; 35% ethanol
# [2] = tested on: Env. Salmonella (S22); test: Burkholder's spot bioassay on carpet of bacteria; type: cell-based; details: Salmonella spp. (S22); composition 2% + thymol 1:512, or single dose of thymol 1:512
# Method: Referring now to FIGS. 26A to 26C, environmental Salmonella (S22) treated with thyme, yarrow, the botanical composition and control (C) are shown. […] A determined volume of (i.e. 10 μl) dissolved extract from each concentration is spotted on carpet of bacteria.
# [3] = tested on: Pathogenic Salmonella (S1); test: Burkholder's spot bioassay on carpet of bacteria; type: cell-based; details: Salmonella spp. (SL1); composition 2% + thymol 1:512, or single dose of thymol 1:512
# [4] = tested on: Xanthomonas campestris; test: Burkholder's spot bioassay on carpet of bacteria; type: cell-based
# [5] = tested on: Aspergillus ochraceus; test: Antifungal and MIC spot assay on carpet of fungi; details: composition 1% + thymol 1:768, or thymol 1:768 alone
# [6] = tested on: Salmonella (S31); test: Burkholder's spot bioassay on carpet of bacteria; type: cell-based; details: Salmonella spp. (S531); composition 2% + thymol 1:512, or single dose of thymol 1:512
# Source text: Referring now to FIG. 28, Salmonella (S31—mungbean sprout isolate) treated with thyme is shown.
SMILES,inhibition of spore germination [1],antimicrobial effectiveness [2],antimicrobial effectiveness [3],antimicrobial effectiveness [4],antifungal effectiveness on growth [5],antimicrobial effectiveness [6]
"CCO [35% ethanol, ethanol]",complete inhibition,,,,,
Cc1ccc(C(C)C)c(O)c1 [thymol],,not effective,not effective,not effective,not effective,not effective
